From patent US20190231751A1, “TREATMENT OF FIBROTIC DISORDERS WITH JUN N-TERMINAL KINASE INHIBITORS” (Imago Pharmaceuticals, Inc., priority 2016, published 2019)

How the values were obtained:
Format in all cases: biochemical
JNK2 = JNK2 (Homo sapiens, UniProt P45984); test: In vitro JNK2 inhibition (Table 1)
Experimental: (§1) In vitro assays for the determination of JNK activities are known in the art and exemplary assay formats are described herein.
(§2) IC50 values in Table 1 were determined using the procedures as described in U.S. Pat. No. 8,450,353.

JNK1 = JNK1 (Homo sapiens, UniProt P45983); test: In vitro JNK1 inhibition (Table 1)
Sequence of JNK1 (P45983 whole entry, species assumed): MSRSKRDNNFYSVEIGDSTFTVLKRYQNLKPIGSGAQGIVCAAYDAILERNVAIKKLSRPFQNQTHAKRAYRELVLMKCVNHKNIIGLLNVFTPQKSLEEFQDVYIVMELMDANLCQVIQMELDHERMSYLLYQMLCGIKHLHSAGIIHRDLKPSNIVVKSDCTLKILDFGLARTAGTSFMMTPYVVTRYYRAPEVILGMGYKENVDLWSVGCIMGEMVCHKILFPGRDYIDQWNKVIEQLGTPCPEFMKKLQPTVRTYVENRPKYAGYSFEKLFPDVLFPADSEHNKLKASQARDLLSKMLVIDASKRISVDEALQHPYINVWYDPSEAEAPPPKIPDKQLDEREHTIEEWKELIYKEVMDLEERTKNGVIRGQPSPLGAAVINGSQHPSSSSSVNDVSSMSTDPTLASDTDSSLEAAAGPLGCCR
Experimental: as §1, §2

JNK3 = JNK3 (Homo sapiens, UniProt P53779); test: In vitro JNK3 inhibition (Table 1)
Sequence of JNK3 (P53779 whole entry, species assumed): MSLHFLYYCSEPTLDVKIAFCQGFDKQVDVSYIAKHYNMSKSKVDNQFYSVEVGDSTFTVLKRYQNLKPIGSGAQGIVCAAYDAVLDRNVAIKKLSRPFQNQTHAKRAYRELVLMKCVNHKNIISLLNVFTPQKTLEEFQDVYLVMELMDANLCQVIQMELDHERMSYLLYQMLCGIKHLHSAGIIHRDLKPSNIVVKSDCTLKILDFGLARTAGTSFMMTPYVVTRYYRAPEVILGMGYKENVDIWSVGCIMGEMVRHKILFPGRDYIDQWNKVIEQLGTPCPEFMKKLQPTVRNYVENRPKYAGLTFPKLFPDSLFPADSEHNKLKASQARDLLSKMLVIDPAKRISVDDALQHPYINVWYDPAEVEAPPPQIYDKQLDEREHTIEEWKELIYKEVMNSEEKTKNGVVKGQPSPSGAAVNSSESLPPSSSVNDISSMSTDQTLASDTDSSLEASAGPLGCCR
Experimental: as §1, §2

Sequence of JNK2 (P45984 whole entry, species assumed): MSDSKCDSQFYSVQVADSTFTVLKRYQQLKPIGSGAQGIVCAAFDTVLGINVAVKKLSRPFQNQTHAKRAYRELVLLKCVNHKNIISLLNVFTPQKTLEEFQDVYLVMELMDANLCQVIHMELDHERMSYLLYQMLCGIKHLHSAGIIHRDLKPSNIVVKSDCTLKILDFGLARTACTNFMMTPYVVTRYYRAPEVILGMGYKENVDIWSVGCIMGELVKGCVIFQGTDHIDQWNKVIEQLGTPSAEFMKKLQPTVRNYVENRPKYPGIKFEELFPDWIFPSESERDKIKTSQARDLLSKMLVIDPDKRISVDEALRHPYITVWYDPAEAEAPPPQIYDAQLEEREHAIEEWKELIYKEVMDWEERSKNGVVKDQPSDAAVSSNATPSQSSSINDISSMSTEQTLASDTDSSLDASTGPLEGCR

| IC50 (JNK2) [nM] | IC50 (JNK1) [nM] | IC50 (JNK3) [nM] | Compound |
| --- | --- | --- | --- |
| 10000 to 50000 |  |  | COc1ccc(CC(=O)Nc2ccsc2-n2cc(C)cn2)cc1 [2-(4-methoxyphenyl)-N-(2-(4-methyl-1H-pyrazol-1-yl)thiophen-3-yl)acetamide] |
| 10000 to 50000 |  |  | COc1ccc(CC(=O)Nc2ccsc2-c2ncco2)cc1 [2-(4-methoxyphenyl)-N-(2-(oxazol-2-yl)thiophen-3-yl)acetamide] |
| 10000 to 50000 |  |  | COc1ccc(CC(=O)Nc2sccc2-c2nnn(C)n2)cc1 [2-(4-methoxyphenyl)-N-(3-(2-methyl-2H-tetrazol-5-yl)thiophen-2-yl)acetamide] |
| < 100 | < 100 | < 100 | O=C(Cn1c(=O)ccc2cc(Br)ccc21)Nc1scc(Br)c1-c1nc[nH]n1 [2-(6-bromo-2-oxoquinolin-1(2H)-yl)-N-(4-bromo-3-(1H-1,2,4-triazol-3-yl)thiophen-2-yl)acetamide] |
| < 100 | < 100 | < 100 | O=C(Cn1c(=O)ccc2cc(Br)ccc21)Nc1scc(Cl)c1-c1nc[nH]n1 [2-(6-bromo-2-oxoquinolin-1(2H)-yl)-N-(4-chloro-3-(1H-1,2,4-triazol-3-yl)thiophen-2-yl)acetamide] |
| 10000 to 50000 |  |  | COc1nc(-c2sccc2NC(=O)Cc2cccc3cnccc23)cs1 [2-(isoquinolin-5-yl)-N-(2-(2-methoxythiazol-4-yl)thiophen-3-yl)acetamide] |
| 100 to 10000 |  |  | Cn1ncnc1-c1ncsc1NC(=O)Cc1cccc2cnccc12 [2-(isoquinolin-5-yl)-N-(4-(1-methyl-1H-1,2,4-triazol-5-yl)thiazol-5-yl)acetamide] |
| < 100 | < 100 | < 100 | O=C(Cn1c(=O)ccc2ncccc21)Nc1scc(Br)c1-c1ncn[nH]1 [IGP002, N-(4-bromo-3-(1H-1,2,4-triazol-5-yl)thiophen-2-yl)-2-(2-oxo-1,5-naphthyridin-1(2H)-yl)acetamide] |
| 10000 to 50000 |  |  | O=C(Cc1cccc2ccccc12)Nc1ccsc1-c1nnco1 [N-(2-(1,3,4-oxadiazol-2-yl)thiophen-3-yl)-2-(naphthalen-1-yl)acetamide] |
| 100 to 10000 |  |  | O=C(Cc1ccc2c(c1)OCCO2)Nc1ccsc1-c1ncn[nH]1 [N-(2-(1H-1,2,4-triazol-5-yl)thiophen-3-yl)-2-(2,3-dihydrobenzo[b][1,4]dioxin-6-yl)acetamide] |
| 10000 to 50000 |  |  | O=C(CN1C(=O)CCc2ccccc21)Nc1ccsc1-c1c[nH]cn1 [N-(2-(1H-imidazol-4-yl)thiophen-3-yl)-2-(2-oxo-3,4-dihydroquinolin-1(2H)-yl)acetamide] |
| 10000 to 50000 |  |  | O=C(Cc1cccc2cnccc12)Nc1ccsc1-c1csc(Cl)n1 [N-(2-(2-chlorothiazol-4-yl)thiophen-3-yl)-2-(isoquinolin-5-yl)acetamide] |
| 100 to 10000 |  |  | COc1ccc(CC(=O)Nc2ccsc2-c2nc(N)n[nH]2)cc1 [N-(2-(3-amino-1H-1,2,4-triazol-5-yl)thiophen-3-yl)-2-(4-methoxyphenyl)acetamide] |
| 100 to 10000 |  |  | Cc1n[nH]c(-c2sccc2NC(=O)Cc2ccc(N3CCCC3=O)cc2)n1 [N-(2-(3-methyl-H-1,2,4-triazol-5-yl)thiophen-3-yl)-2-(4-(2-oxopyrrolidin-1-yl)phenyl)acetamide] |
| 10000 to 50000 |  |  | COc1ccc(CC(=O)Nc2ccsc2-c2nc(C(C)(C)C)n[nH]2)cc1 [N-(2-(3-tert-butyl-1H-1,2,4-triazol-5-yl)thiophen-3-yl)-2-(4-methoxyphenyl)acetamide] |
| 10000 to 50000 |  |  | Cc1nnc(-c2sccc2NC(=O)Cc2cccc3ccccc23)o1 [N-(2-(5-methyl-1,3,4-oxadiazol-2-yl)thiophen-3-yl)-2-(naphthalen-1-yl)acetamide] |
| 10000 to 50000 |  |  | COc1ccc(CC(=O)Nc2sccc2-c2nn[nH]n2)cc1 [N-(3-(2H-tetrazol-5-yl)thiophen-2-yl)-2-(4-methoxyphenyl)-acetamide] |
| 10000 to 50000 |  |  | Cc1csc(NC(=O)Cc2cccc3cnccc23)c1-c1nc2ccccc2s1 [N-(3-(benzo[d]thiazol-2-yl)-4-methylthiophen-2-yl)-2-(isoquinolin-5-yl)acetamide] |
| < 100 | < 100 | < 100 | Cn1cnc(-c2c(Br)csc2NC(=O)CN2C(=O)CCc3ncccc32)n1 [N-(4-bromo-3-(1-methyl-1H-1,2,4-triazol-3-yl)thiophen-2-yl)-2-(2-oxo-3,4-dihydro-1,5-naphthyridin-1(2H)-yl)acetamide] |

| IC50 (JNK2) [nM] | IC50 (JNK1) [nM] | IC50 (JNK3) [nM] | Compound |
| --- | --- | --- | --- |
| < 100 | < 100 | < 100 | O=C(Cc1cccc2ncc(F)cc12)Nc1scc(Br)c1-c1nc[nH]n1 [N-(4-bromo-3-(1H-1,2,4-triazol-3-yl)thiophen-2-yl)-2-(3-fluoroquinolin-5-yl)acetamide] |
| < 100 | < 100 | < 100 | O=C(Cn1c(=O)ccc2cnccc21)Nc1scc(Br)c1-c1ncn[nH]1 [N-(4-bromo-3-(1H-1,2,4-triazol-5-yl)thiophen-2-yl)-2-(2-oxo-1,6-naphthyridin-1(2H)-yl)acetamide] |
| < 100 | < 100 | < 100 | O=C(CN1C(=O)CCc2ncccc21)Nc1scc(Br)c1-c1ncn[nH]1 [N-(4-bromo-3-(1H-1,2,4-triazol-5-yl)thiophen-2-yl)-2-(2-oxo-3,4-dihydro-1,5-naphthyridin-1(2H)-yl)acetamide] |
| < 100 | < 100 | < 100 | O=C(CN1C(=O)CCc2cnccc21)Nc1scc(Br)c1-c1ncn[nH]1 [N-(4-bromo-3-(1H-1,2,4-triazol-5-yl)thiophen-2-yl)-2-(2-oxo-3,4-dihydro-1,6-naphthyridin-1(2H)-yl)acetamide] |
| < 100 | < 100 | < 100 | O=C(CN1C(=O)CCc2ccccc21)Nc1scc(Br)c1-c1ncn[nH]1 [N-(4-bromo-3-(1H-1,2,4-triazol-5-yl)thiophen-2-yl)-2-(2-oxo-3,4-dihydroquinolin-1(2H)-yl)acetamide] |
| < 100 | < 100 | < 100 | O=C(Cn1c(=O)ccc2nc(C(F)(F)F)ccc21)Nc1scc(Br)c1-c1ncn[nH]1 [N-(4-bromo-3-(1H-1,2,4-triazol-5-yl)thiophen-2-yl)-2-(2-oxo-6-(trifluoromethyl)-1,5-naphthyridin-1(2H)-yl)acetamide] |
| < 100 | < 100 | < 100 | O=C(CN1C(=O)CCc2cc(C(F)(F)F)ccc21)Nc1scc(Br)c1-c1ncn[nH]1 [N-(4-bromo-3-(1H-1,2,4-triazol-5-yl)thiophen-2-yl)-2-(2-oxo-6-(trifluoromethyl)-3,4-dihydroquinolin-1(2H)-yl)acetamide] |
| < 100 | < 100 | < 100 | O=C(Cn1c(=O)ccc2cnc(C(F)(F)F)cc21)Nc1scc(Br)c1-c1ncn[nH]1 [N-(4-bromo-3-(1H-1,2,4-triazol-5-yl)thiophen-2-yl)-2-(2-oxo-7-(trifluoromethyl)-1,6-naphthyridin-1(2H)-yl)acetamide] |
| < 100 | < 100 | < 100 | O=C(Cn1c(=O)ccc2ccc(C(F)(F)F)cc21)Nc1scc(Br)c1-c1ncn[nH]1 [N-(4-bromo-3-(1H-1,2,4-triazol-5-yl)thiophen-2-yl)-2-(2-oxo-7-(trifluoromethyl)quinolin-1(2H)-yl)acetamide] |
| < 100 | < 100 | < 100 | O=C(Cn1c(=O)ccc2c(F)cccc21)Nc1scc(Br)c1-c1ncn[nH]1 [N-(4-bromo-3-(1H-1,2,4-triazol-5-yl)thiophen-2-yl)-2-(5-fluoro-2-oxoquinolin-1(2H)-yl)acetamide] |
| < 100 | < 100 | < 100 | O=C(Cn1c(=O)ccn2nc(C(F)(F)F)cc12)Nc1scc(Br)c1-c1ncn[nH]1 [N-(4-bromo-3-(1H-1,2,4-triazol-5-yl)thiophen-2-yl)-2-(5-oxo-2-(trifluoromethyl)pyrazolo[1,5-a]pyrimidin-4(5H)-yl)acetamide] |
| < 100 | < 100 | < 100 | O=C(Cn1c(=O)ccn2nccc12)Nc1scc(Br)c1-c1ncn[nH]1 [N-(4-bromo-3-(1H-1,2,4-triazol-5-yl)thiophen-2-yl)-2-(5-oxopyrazolo[1,5-a]pyrimidin-4(5H)-yl)acetamide] |
| < 100 | < 100 | < 100 | O=C(Cn1c(=O)ccc2cc(F)c(F)cc21)Nc1scc(Br)c1-c1ncn[nH]1 [N-(4-bromo-3-(1H-1,2,4-triazol-5-yl)thiophen-2-yl)-2-(6,7-difluoro-2-oxoquinolin-1(2H)-yl)acetamide] |
| < 100 | < 100 | < 100 | O=C(Cn1c(=O)ccc2cc(Cl)ccc21)Nc1scc(Br)c1-c1ncn[nH]1 [N-(4-bromo-3-(1H-1,2,4-triazol-5-yl)thiophen-2-yl)-2-(6-chloro-2-oxoquinolin-1(2H)-yl)acetamide] |
| < 100 | < 100 | < 100 | N#Cc1ccc2c(ccc(=O)n2CC(=O)Nc2scc(Br)c2-c2ncn[nH]2)c1 [N-(4-bromo-3-(1H-1,2,4-triazol-5-yl)thiophen-2-yl)-2-(6-cyano-2-oxoquinolin-1(2H)-yl)acetamide] |
| < 100 | < 100 | < 100 | C#Cc1ccc2c(ccc(=O)n2CC(=O)Nc2scc(Br)c2-c2ncn[nH]2)c1 [N-(4-bromo-3-(1H-1,2,4-triazol-5-yl)thiophen-2-yl)-2-(6-ethynyl-2-oxoquinolin-1(2H)-yl)acetamide] |
| 100 to 10000 |  |  | Cc1csc(NC(=O)Cc2cccc3ncccc23)c1-c1ncn[nH]1 [N-(4-methyl-3-(1H-1,2,4-triazol-5-yl)thiophen-2-yl)-2-(quinolin-5-yl)acetamide] |
| 100 to 10000 |  | 100 to 10000 | O=C(Cn1c(=O)ccc2cc(C(F)(F)F)ccc21)Nc1sc(Cl)cc1-c1ncn[nH]1 [N-(5-chloro-3-(1H-1,2,4-triazol-5-yl)thiophen-2-yl)-2-(2-oxo-6-(trifluoromethyl)quinolin-1(2H)-yl)acetamide] |
